What was measured:
SpCas9 [1] = target: T1, SpCas9 (Streptococcus pyogenes serotype M1, UniProt Q99ZW2); assay: Strand displacement assay (SDA) / cumulative activity assay (CAA), SpCas9 primary screen; format: biochemical; conditions: Primary Screen (150 min); for Normalized Z score 1: replicate 1; for Normalized Z score 2: replicate 2
Experimental: Screening of inhibitors was via a high throughput pipeline, as depicted in FIG. 29. The first screening is via a strand displacement assay (SDA) for detecting nuclease activity (FIG. 27A, 28A). The Cpf1/Cas12 protein/DNA complex has a different structure from Cas9 and requires optimization of the potential fluorophore attachment sites (Yamano, T et al., Cell, 2016). (FIG. 28A). Next screened compounds are evaluated in an eGFP cell assay, and for eGFP dose. Those compounds are further narrowed via a HiBiT assay and finally evaluated in the surveyor assay. SAR evaluations are performed to arrive at lead compounds for further evaluations and variations. General methodology for the assays is as described in at [0253]-[0301] of U.S. Patent Application 62/831,143 filed Apr. 8, 2019, incorporated herein by reference.
The 3′ end of the displacing single-stranded DNA was labeled with a quencher. Following nuclease cleavage of the substrate, the 3′-labeled quenching DNA strand (present in excess) could outcompete the weakly held 3′ strand to anneal to the 5′ strand. The resulting FRET fluorescence quenching provides an optical readout for nuclease activity (FIG. 62A).
Typically, SpCas9: gRNA (1:1.2 ratio) RNP was pre-formed at 1 μM in Cas9 assay buffer (20 mM Tris-HCl, pH=7.5, 100 mM KCl, 5 mM MgCl2) for 5 min at 4° C. before diluting to 10 nM in Cas9 assay buffer (2× final concentration). 25 μL of the Cas9 2× stock was manually dispensed to a black 384-well plate (Corning 3575) using electronic pipette. […] Following this, pre-annealed Alexa-Fluor 647 labeled substrate and quencher were also diluted to 1 nM and 5 nM in Cas9 assay buffer, respectively (2× stock solution). Next, 25 μL of the substrate/quencher solution was added manually to each well of the Cas9-containing 384-well plates using an electronic pipette and was incubated at 37° C. for 2.5 h. Fluorescent signals were read with the microplate reader set to read Alexa-Fluor 647 fluorescence. Assay was performed similarly with SaCas9 and FnCas12a using the respective enzyme, gRNA, substrate, and quencher oligos. […]

SpCas9 [2] = target: T1, SpCas9; assay: eGFP disruption assay, SpCas9, U2OS.eGFP.PEST cells; format: cell-based; conditions: for Normalized Z rep1 / Z score Rep1: replicate 1; for SpCas9 eGFP disruption Rep1: replicate 1, raw readout; for Normalized Z rep2 / Z socre Rep2: replicate 2; for SpCas9 eGFP disruption Rep2: replicate 2, raw readout
Source text: In some embodiments, the secondary assay may be an EGFP disruption assay. In such assay, a quantitative human cell-based reporter assay that enables rapid quantitation of targeted nuclease activities is used to characterize off-target cleavage of Cas9-based RNA guided endonucleases. In this assay, the activities of nucleases targeted to a single integrated EGFP reporter gene can be quantified by assessing loss of fluorescence signal in human U2OS.EGFP cells caused by inactivating frameshift insertion/deletion (indel) mutations introduced by error prone non-homologous end-joining (NHEJ) repair of nuclease-induced double-stranded breaks (DSBs).
In one protocol, U2OS.EGFP cells harboring a single integrated copy of an EGFP-PEST fusion gene are cultured (see e.g., Reyon et al., Nat Biotech 30, 460-465 (2012), which is herein incorporated by reference in its entirety). For transfections, 200,000 cells are Nucleofected with gRNA expression plasmid and pJDS246 together with 30 ng of a Td-tomato-encoding plasmid using the SE Cell Line 4D-Nucleofector™ X Kit (Lonza) according to the manufacturer's protocol. Cells are analyzed 2 days post-transfection using a BD LSRII flow cytometer. Transfections for optimizing gRNA/Cas9 plasmid concentration are performed in triplicate and all other transfections are performed in duplicate. PCR amplification is used for sequence verification of endogenous human genomic sites. PCR reactions are performed using Phusion Hot Start II high-fidelity DNA polymerase (NEB). Loci are amplified using touchdown PCR (98° C., 10 s; 72-62° C., −1° C./cycle, 15s; 72° C., 30 s] 10 cycles, [98° C., 10s; 62° C., 15s; 72° C., 30 s] 25 cycles). Alternatively, PCR for other targets is performed with 35 cycles at a constant annealing temperature of 68° C. or 72° C., and 3% DMSO or IM betaine, if necessary. PCR products are analyzed on a QIAXCEL capillary electrophoresis system to verify both size and purity. Validated products are treated with ExoSap-IT (Affymetrix) and sequenced by the Sanger method (MGH DNA Sequencing Core) to verify each target site.
Primary and secondary screening. The primary screen assayed a selection of unique chemical scaffolds derived from commercially available compounds and known bioactive molecular libraries (Table 7). Auto-fluorescent compounds were removed by a counter screen. Overall, the CAA was used to assay 122,409 small molecules with over 2,500 unique chemical scaffolds (FIG. 64F, Table 7). Of these compounds, 547 were selected as hits (Z score >3 in both replicates) for testing in orthogonal cell-based secondary assays. Hits were tested in duplicate in an eGFP disruption assay, wherein U2OS.eGFP.PEST cells^33 transfected with SpCas9 plasmid and eGFP-targeting gRNA plasmid were incubated with 20 μM of the compounds. In this assay, any compound that inhibited SpCas9 would rescue the loss of eGFP fluorescence. Here, toxic and auto-fluorescent compounds with a high GFP signal in cells were removed as false positives. […] Next, Applicants tested the 15 compounds in a luminescence-based gain-of-signal HiBiT knock-in assay, which involves SpCas9-mediated homology-directed tagging of GAPDH with a short peptide that luminesces upon complementation with a subunit derived from nanoluciferase.^34 Complementarily, the eGFP-disruption assay is fluorescence-based and involves error-prone DNA repair. As a counter-screen to remove false positives caused by cell death (viability <80%), the cell viability was measured after incubation.
For SAR studies and dose-response studies, 300,000 U2OS.eGFP.PEST cells were nucleofected with 300 ng of SpCas9 plasmid (Addgene #43861) and 30 ng of eGFP-targeting gRNA plasmid (Addgene #47511)^33 using SE Cell Line 4D-Nucleofector X Kit (Lonza) following the pulse program of DN-100. For RNP-based genome editing, 10 pmol of SpCas9 (GenScript #Z03385) and 12 pmol of gRNA were mixed and incubated for 5 min. […]

T1 sequence (Q99ZW2 whole entry): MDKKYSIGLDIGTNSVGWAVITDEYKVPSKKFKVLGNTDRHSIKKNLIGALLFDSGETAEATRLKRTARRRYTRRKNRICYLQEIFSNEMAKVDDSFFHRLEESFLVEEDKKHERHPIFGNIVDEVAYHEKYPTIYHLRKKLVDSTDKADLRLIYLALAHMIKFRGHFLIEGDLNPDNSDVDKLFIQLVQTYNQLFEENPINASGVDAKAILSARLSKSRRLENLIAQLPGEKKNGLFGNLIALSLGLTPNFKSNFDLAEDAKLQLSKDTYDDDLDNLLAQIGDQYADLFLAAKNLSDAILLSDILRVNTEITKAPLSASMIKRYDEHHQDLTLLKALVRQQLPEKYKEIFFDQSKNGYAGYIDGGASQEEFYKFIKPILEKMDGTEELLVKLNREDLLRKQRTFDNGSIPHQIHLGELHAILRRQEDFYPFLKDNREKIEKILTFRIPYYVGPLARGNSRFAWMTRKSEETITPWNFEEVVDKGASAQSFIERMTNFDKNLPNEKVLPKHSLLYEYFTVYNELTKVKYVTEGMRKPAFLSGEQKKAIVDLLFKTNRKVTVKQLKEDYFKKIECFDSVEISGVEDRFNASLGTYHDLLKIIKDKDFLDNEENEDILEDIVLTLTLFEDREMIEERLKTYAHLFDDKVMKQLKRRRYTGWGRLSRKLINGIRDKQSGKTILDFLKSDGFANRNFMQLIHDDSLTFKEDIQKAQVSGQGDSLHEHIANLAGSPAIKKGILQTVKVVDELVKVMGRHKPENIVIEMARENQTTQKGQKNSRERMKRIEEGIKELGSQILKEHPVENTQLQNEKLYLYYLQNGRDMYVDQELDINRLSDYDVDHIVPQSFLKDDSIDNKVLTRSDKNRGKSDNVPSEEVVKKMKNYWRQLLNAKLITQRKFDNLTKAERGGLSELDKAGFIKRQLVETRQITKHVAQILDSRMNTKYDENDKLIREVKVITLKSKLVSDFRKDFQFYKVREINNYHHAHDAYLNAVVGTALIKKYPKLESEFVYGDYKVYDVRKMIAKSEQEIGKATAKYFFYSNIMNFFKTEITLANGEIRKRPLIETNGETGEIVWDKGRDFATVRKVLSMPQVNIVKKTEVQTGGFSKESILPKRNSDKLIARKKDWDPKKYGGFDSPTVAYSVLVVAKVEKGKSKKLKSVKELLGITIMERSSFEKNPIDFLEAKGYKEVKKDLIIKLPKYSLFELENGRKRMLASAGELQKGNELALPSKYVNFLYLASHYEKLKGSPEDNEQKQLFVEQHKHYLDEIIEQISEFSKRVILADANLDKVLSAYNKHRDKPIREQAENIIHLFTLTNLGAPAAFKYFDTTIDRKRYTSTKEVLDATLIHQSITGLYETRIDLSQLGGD

Row | SMILES | Average Normalized Z score (SpCas9 [1]) | avg z score primary (SpCas9 [1]) | Normalized Z score 1 (SpCas9 [1]) | Normalized Z score 2 (SpCas9 [1]) | Normalized Z rep1 (SpCas9 [2]) | Z score Rep1 (SpCas9 [2]) | SpCas9 eGFP disruption Rep1 (SpCas9 [2]) | Normalized Z rep2 (SpCas9 [2]) | Z socre Rep2 (SpCas9 [2]) | SpCas9 eGFP disruption Rep2 (SpCas9 [2]) | Average Normalized Z score (SpCas9 [1]; average of replicates)
1 | CCn1c(=O)c(C(=O)Nc2nccc(C)n2)c(O)c2ccccc21 [Compound G650-0193] | 0.21 | 11.65 | 0.19 | 0.23 | −0.05 | −0.45 | 63.431 | −0.43 | −6.43 | 55.676 | –
2 | Cn1nc(-c2ccccc2F)c2cc(C(=O)Oc3ccc4cnccc4c3)sc21 [Compound G784-0099] | 0.07 | 7.48 | 0.06 | 0.09 | −0.35 | −3.62 | 69.21 | 0.01 | 0.21 | 76.066 | –
3 | O=C(Nc1nc(-c2ccccc2)c(C(=O)c2ccccc2)s1)c1ccc2c(c1)OCCO2 [Compound G786-0335] | 0.04 | 4.14 | 0.04 | 0.04 | −0.08 | −0.79 | 74.347 | 0.09 | 2.13 | 77.667 | –
4 | COc1ccc(-n2c(N(C(C)=O)C(C)=O)c(C#N)c3nc4ccccc4nc32)cc1 [Compound T0503-6223] | – | 14.21 | 0.16 | 0.16 | – | – | – | – | – | – | 0.16
5 | O=C(N/N=C/c1ccc(O)c(O)c1O)c1cccc(S(=O)(=O)Nc2ccccc2Cl)c1 [Compound T0506-5702] | – | 4.48 | 0.07 | 0.07 | – | – | – | – | – | – | 0.07
6 | Cc1ccc(C(=O)n2ncn(C)c2=S)cc1 [Compound T0510-3476] | – | 28.56 | 0.39 | 0.42 | – | – | – | – | – | – | 0.41
7 | O=C(CCC(=O)c1ccc(F)cc1)OC1CCOC1=O (centres unmarked) [Compound T0512-8635] | – | 4.05 | 0.04 | 0.04 | – | – | – | – | – | – | 0.04
8 | O=C(CSc1nnc2ccccn12)Nc1cc(C(=O)O)cc(C(=O)O)c1 [Compound T0513-0201] | – | 11.30 | 0.10 | 0.13 | – | – | – | – | – | – | 0.11
9 | CCOC(=O)C1CCCN(Cn2nnn(-c3ccc(OC)cc3)c2=S)C1 (centres unmarked) [Compound T0513-0218] | – | 3.45 | 0.04 | 0.03 | – | – | – | – | – | – | 0.04
10 | O=C(Nc1nnc(C2CC2)s1)c1ccc2ncsc2c1 [Compound T0514-1693] | – | 5.62 | 0.07 | 0.07 | – | – | – | – | – | – | 0.07
11 | O=C(O)c1cccc(NCC2SC(=S)NC2=O)c1 (centres unmarked) [Compound T0514-3358] | – | 4.79 | 0.32 | 0.27 | – | – | – | – | – | – | 0.30
12 | Oc1c(C(c2cccs2)N2CCCCC2)ccc2cccnc12 (centres unmarked) [Compound T0515-1927] | – | 10.34 | 0.70 | 0.67 | – | – | – | – | – | – | 0.68
13 | O=C(COC(=O)c1cc(O)c(O)c(O)c1)NC1CCCc2ccccc21 (centres unmarked) [Compound T0515-9025] | – | 4.00 | 0.26 | 0.23 | – | – | – | – | – | – | 0.25
14 | Cc1ccc(Cl)cc1NC(=O)C1=NCCN1 [Compound T0519-9012] | – | 5.06 | 0.08 | 0.12 | – | – | – | – | – | – | 0.10
15 | Cc1sc2nc3n(c(=O)c2c1-c1ccccc1)CCC3 [Compound T0520-0462] | – | 4.18 | 0.04 | 0.05 | – | – | – | – | – | – | 0.04
16 | O=C(O)CSc1nnc(NC2CCCCC2)s1 [Compound T5211003] | – | 4.50 | 0.05 | 0.05 | – | – | – | – | – | – | 0.05
17 | NC(=S)c1ccccn1 [Compound T5211106] | – | 3.58 | 0.04 | 0.04 | – | – | – | – | – | – | 0.04
18 | CCc1ccc(NC(=O)C(C#N)=Cc2cc(C#N)n(C)c2C)cc1 [Compound T5229649] | – | 4.90 | 0.06 | 0.08 | – | – | – | – | – | – | 0.07
19 | N=C1N=CC(=NNc2cc(C(=O)O)ccc2Cl)S1 [Compound T5253378] | – | 4.20 | 0.08 | 0.07 | – | – | – | – | – | – | 0.07
20 | CCC(CC)NC(=O)c1ccc2ncsc2c1 [Compound T5324509] | – | 7.80 | 0.12 | 0.09 | – | – | – | – | – | – | 0.10
21 | Cn1cccc1/C=C\C(=O)O [Compound T5365031] | – | 4.17 | 0.27 | 0.28 | – | – | – | – | – | – | 0.28
22 | O=C1NC(=S)C(=C2CCCC2)S1 [Compound T5441809] | – | 22.96 | 0.27 | 0.24 | – | – | – | – | – | – | 0.26
23 | O=C(O)C(S)=C/C=C\c1ccccc1 [Compound T5441826] | – | 4.20 | 0.03 | 0.06 | – | – | – | – | – | – | 0.05

Source: US20240115557A1, “INHIBITORS OF RNA-GUIDED NUCLEASES AND USES THEREOF” (The Brigham and Women's Hospital, Inc., priority 2022, published 2024)
